Measurements as given in PMC7156458, “Synthetic biology based construction of biological activity-related library of fungal decalin-containing diterpenoid pyrones” (Nature Communications, 2020).
Where “and” joins values, the source holds several entries; their conditions need not be identical. Identical values can stand only once. Like-named read-outs stand apart in the source and are kept apart here.

Legend:
[1] = cytotoxicity in Drosophila DL1 cells; format: cell-based; conditions: Drosophila, DL1 cells (embryonic macrophage-derived), DL1 cells
Method: (§1) We screened the DDPs on the Drosophila assay system for cytotoxicity, inhibitory activity of innate immune signalling and insecticidal activity. The cytotoxicity of the DDPs was evaluated using two cell lines, embryonic macrophage-derived DL1 cells[58]–[60] and larval blood cell-derived l(2)mbn cells, and their IC50 values are listed in Supplementary Table 23.

[2] = system: DL1 cells; assay: cytotoxicity in Drosophila DL1 cells; format: cell-based; conditions: DL1 cells; for IC50: Drosophila melanogaster, cytotoxicity
Method: as §1

[3] = system: human immunodeficiency virus-1 (HIV-1); assay: anti-HIV MAGI assay; format: cell-based; conditions: anti-HIV
Source text: We examined the inhibitory activities of DDPs against various species of bacteria (both gram-negative and gram-positive bacteria), fungi and viruses. […] In contrast, preliminary screening of the DDPs for anti-viral agents with hepatitis B virus (HBV), measles virus (MV), Epstein-Barr virus (EBV), herpes simplex virus (HSV) and human immunodeficiency virus-1 (HIV-1) indicated their selective inhibition of HIV.

[4] = system: HT-29; assay: cells; parameters: species or system JFCR39 human cancer cell lines; JFCR39 panel growth inhibition, sulforhodamine B total protein after 48 h; conditions: Homo sapiens, HT-29, 48 h
Method: (§2) Supplementary Note 24. Antiproliferative effects across the panel of JFCR39 cancer cell lines A panel of 39 human cancer cell lines, termed JFCR39, were previously described13-16. Cells were grown in RPMI-1640 (FUJIFILM Wako Pure Chemical Corporation, Tokyo, Japan) supplemented with 1 µg mL-1 kanamycin and 5% (v/v) fetal bovine serum (Nichirei Biosciences Inc, Tokyo, Japan) and incubated at 37°C in a humidified atmosphere supplemented with 5% CO2. Drug efficacy was assessed as changes in total cellular protein after 48 hours of drug treatment using a sulforhodamine B assay. Assays were done in duplicate and the GI50 was calculated as described previously13,16. The antitumor profile across the JFCR39 panel, or fingerprints were then compared to reference database containing ~2000 compounds by COMPARE algorithm16,17. Initially, we evaluated new DDP analogues for their antiproliferative activities across the panel of 39 human cancer cell lines, JFCR39[50],[51].

[5] = system: MKN-A; assay: cells; parameters: species or system JFCR39 human cancer cell lines; JFCR39 panel growth inhibition, sulforhodamine B total protein after 48 h; conditions: 48 h
Method: as §2

[6] = system: MKN-B; assay: cells; parameters: species or system JFCR39 human cancer cell lines; JFCR39 panel growth inhibition, sulforhodamine B total protein after 48 h; conditions: 48 h
Method: as §2

[7] = system: SF-539; assay: cells; parameters: species or system JFCR39 human cancer cell lines; JFCR39 panel growth inhibition, sulforhodamine B total protein after 48 h; conditions: Homo sapiens, SF-539, 48 h
Method: as §2

[8] = system: HCC2998; assay: cells; parameters: species or system JFCR39 human cancer cell lines; JFCR39 panel growth inhibition, sulforhodamine B total protein after 48 h; conditions: Homo sapiens, HCC 2998, 48 h
Method: as §2

[9] = replicate 1, relative to DMSO 1%, read-out: % viability, viability 1
[10] = replicate 2, relative to DMSO 1%, read-out: % viability, viability 2
[11] = average of two replicates, read-out: IC50 Average
[12] = replicate 1, read-out: IC50 (1)
[13] = replicate 2, read-out: IC50 (2)
[14] = Human immunodeficiency virus 1, MAGI, average of numeric determinations, read-out: Avg. EC50

## C=C1CCC2C(C)(CC(=O)C=C(C)C)C(O)CCC2(C)C1Cc1c(OC)oc(CO)c(C)c1=O (stereo not shown) [Compound 19]
[1]; [9]
  viability at 0.04 µM: 92.6%
  viability at 0.2 µM: 78.6%
  viability at 1 µM: 92.1%
  viability at 4 µM: 86.9%
  viability at 10 µM: 52.8%
  viability at 20 µM: 15.3%
[1]; [10]
  viability at 0.04 µM: 93.4%
  viability at 0.2 µM: 86.7%
  viability at 1 µM: 87%
  viability at 4 µM: 80.7%
  viability at 10 µM: 59.6%
  viability at 20 µM: 22.3%
[2]; 0.04 µM, replicate 1
  Luminescence Raw1: 1907594
[2]; 0.04 µM, replicate 2
  Luminescence Raw2: 1924545
[2]; 0.2 µM, replicate 1
  Luminescence Raw1: 1618356
[2]; 0.2 µM, replicate 2
  Luminescence Raw2: 1786055
[2]; 1 µM, replicate 1
  Luminescence Raw1: 1896774
[2]; 1 µM, replicate 2
  Luminescence Raw2: 1792907
[2]; 4 µM, replicate 1
  Luminescence Raw1: 1789301
[2]; 4 µM, replicate 2
  Luminescence Raw2: 1663075
[2]; 10 µM, replicate 1
  Luminescence Raw1: 1087156
[2]; 10 µM, replicate 2
  Luminescence Raw2: 1227796
[2]; 20 µM, replicate 1
  Luminescence Raw1: 315492
[2]; 20 µM, replicate 2
  Luminescence Raw2: 459001
[2]; [11]
  IC50: 10.6 µM
[2]; average±SEM, read-out: IC50
  IC50: 10.6 ± 0.23 µM
[2]; [12]
  IC50: 10.3 µM
[2]; [13]
  IC50: 10.8 µM
[3]; [14]
  EC50: 1.6 µM
[4]
  GI50: 46 µM
[5]
  GI50: 9.57 µM
[6]
  GI50: 15.2 µM
[7]
  GI50: 65.8 µM

## C=C1CCC2C(C)(CCC=C(C)C)C(O)CCC2(C)C1Cc1c(OC)oc(CO)c(C(=O)OC)c1=O (stereo not shown) [Compound 13]
[1]; [9]
  viability at 0.04 µM: 100%
  viability at 0.2 µM: 78.9%
  viability at 1 µM: 9.59%
  viability at 4 µM: 6.11%
  viability at 10 µM: 7.19%
  viability at 20 µM: 4.62%
[1]; [10]
  viability at 0.04 µM: 102%
  viability at 0.2 µM: 70.5%
  viability at 1 µM: 9.84%
  viability at 4 µM: 5.06%
  viability at 10 µM: 6.02%
  viability at 20 µM: 3.94%
[2]; 0.04 µM, replicate 1
  Luminescence Raw1: 2061595
[2]; 0.04 µM, replicate 2
  Luminescence Raw2: 2096579
[2]; 0.2 µM, replicate 1
  Luminescence Raw1: 1624487
[2]; 0.2 µM, replicate 2
  Luminescence Raw2: 1452825
[2]; 1 µM, replicate 1
  Luminescence Raw1: 197587
[2]; 1 µM, replicate 2
  Luminescence Raw2: 202634
[2]; 4 µM, replicate 1
  Luminescence Raw1: 125835
[2]; 4 µM, replicate 2
  Luminescence Raw2: 104201
[2]; 10 µM, replicate 1
  Luminescence Raw1: 148189
[2]; 10 µM, replicate 2
  Luminescence Raw2: 124032
[2]; 20 µM, replicate 1
  Luminescence Raw1: 95187
[2]; 20 µM, replicate 2
  Luminescence Raw2: 81125
[2]; [11]
  IC50: 0.292 µM
[2]; average±SEM, read-out: IC50
  IC50: 0.29 ± 0.02 µM
[2]; [12]
  IC50: 0.311 µM
[2]; [13]
  IC50: 0.273 µM
[3]; [14]
  EC50: 0.0688 µM
[3]; Human immunodeficiency virus 1, MAGI, single determinations, read-out: Efficacy (EC50)
  EC50: 0.0697 µM
[3]; single determinations, read-out: Efficacy (EC50)
  EC50: 0.0611 µM and 0.0814 µM and 0.0631 µM
[8]
  GI50: 17.7 µM
[4]
  GI50: 17.9 µM
[6]
  GI50: 15.7 µM
[7]
  GI50: 19.4 µM

## C=C1CCC2C(C)(CC(=O)C=C(C)C)C(O)CCC2(C)C1Cc1c(O)c(C)c(C)oc1=O (stereo not shown) [Compound 7]
[1]; [9]
  viability at 0.04 µM: 129%
  viability at 0.2 µM: 133%
  viability at 1 µM: 120%
  viability at 4 µM: 83.5%
  viability at 10 µM: 36.5%
  viability at 20 µM: 13.4%
[1]; [10]
  viability at 0.04 µM: 132%
  viability at 0.2 µM: 135%
  viability at 1 µM: 138%
  viability at 4 µM: 117%
  viability at 10 µM: 39.8%
  viability at 20 µM: 14.2%
[2]; 0.04 µM, replicate 1
  Luminescence Raw1: 2666434
[2]; 0.04 µM, replicate 2
  Luminescence Raw2: 2708996
[2]; 0.2 µM, replicate 1
  Luminescence Raw1: 2732080
[2]; 0.2 µM, replicate 2
  Luminescence Raw2: 2789792
[2]; 1 µM, replicate 1
  Luminescence Raw1: 2478515
[2]; 1 µM, replicate 2
  Luminescence Raw2: 2838847
[2]; 4 µM, replicate 1
  Luminescence Raw1: 1720040
[2]; 4 µM, replicate 2
  Luminescence Raw2: 2405658
[2]; 10 µM, replicate 1
  Luminescence Raw1: 751779
[2]; 10 µM, replicate 2
  Luminescence Raw2: 819211
[2]; 20 µM, replicate 1
  Luminescence Raw1: 275091
[2]; 20 µM, replicate 2
  Luminescence Raw2: 293480
[2]; [11]
  IC50: 8.75 µM
[2]; average±SEM, read-out: IC50
  IC50: 8.75 ± 0.64 µM
[2]; [12]
  IC50: 8.12 µM
[2]; [13]
  IC50: 9.39 µM
[3]; [14]
  EC50: 0.163 µM
[5]
  GI50: 20.5 µM
[6]
  GI50: 37.7 µM
[7]
  GI50: 61.4 µM
